Reference: patent publication US20170224679A1, “Use of CXCR2 Antagonists For The Prevention and/or Treatment of Chemotherapy Induced Peripheral Neuropathy (CIPN)” (GlaxoSmithKline Intellectual Property Development Limited, priority 2014, published 2017)

What was measured:
Type in all cases: cell-based
CXCR2 receptor [1] = target: T1, CXCR2 receptor (Homo sapiens, UniProt P25025); test: Human whole blood assay version ii) (CD11b, GROα stimulated); design: Assay d) measures the cellular functional activity to the native expressed human CXCR2 in whole blood; endogenous in cells; host or cells: human whole blood (neutrophils); conditions: 33 nM GROα, neutrophil CD11b, read-out: pIC50 against the CXCR2 receptor (converted)
T1 sequence (P25025 1-360): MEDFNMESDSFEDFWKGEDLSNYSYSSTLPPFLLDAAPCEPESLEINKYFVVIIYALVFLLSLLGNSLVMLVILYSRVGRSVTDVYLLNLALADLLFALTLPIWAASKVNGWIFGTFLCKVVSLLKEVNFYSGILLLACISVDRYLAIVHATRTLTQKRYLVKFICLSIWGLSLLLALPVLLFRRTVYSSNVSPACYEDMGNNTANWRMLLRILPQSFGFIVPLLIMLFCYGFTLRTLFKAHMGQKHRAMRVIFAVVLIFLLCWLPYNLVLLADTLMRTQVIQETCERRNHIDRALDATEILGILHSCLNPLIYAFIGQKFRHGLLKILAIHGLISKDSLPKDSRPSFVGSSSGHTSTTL
Procedure: Blood was withdrawn by venipuncture from consented adults and poured into a Sterilin tube containing an anti-coagulant Heparin (10 μL/mL of blood). All the test compounds were dissolved in DMSO to 4 mM and serial diluted across the plate, 1 in 3 to provide 10 point dose response curves. The compounds were then diluted 100 fold in -PBS [Phosphate buffered saline (without Calcium Chloride and Magnesium Chloride)] after which, 1 μL was dispensed in 96 U bottom Costar plates using an FX. This was done to reduce the final DMSO concentration to 0.25% and for compounds to be screened at 10 uM final assay concentration, after addition of blood.
10 μL of blood was transferred to the compound plate using a multi-channel pipette, gently tapped and incubated for 15 minutes, at 37° C. After 15 minutes, the stimulant GROα was diluted to 100 nM in 0.1% BSA (Albumin Bovine Serum)-PBS and 5 μL is dispensed across the whole plate for a final concentration of 33 nM. The plate was gently tapped and incubated further for 15 minutes at 37° C. […]
Samples were run on a Becton and Dickinson (BD)-Acurri C6 Flow Cytometer using a HyperCyt sampling apparatus (IntelliCyt) with a flow rate 2 μL/sec. CD11 b upregulation is monitored in neutrophils and identified using a combination of both side scatter and CD16 expression.

CXCR2 receptor [2] = target: T1, CXCR2 receptor; test: GPCR Arrestin Assay (DiscoveRX PathHunter), CXCR2; design: host or cells: PathHunter CHO cell lines
Procedure: (§1) Certain compounds of the invention were also tested by DiscoveRX Corporation (42501 Albrae Street, Fremont, Calif. 94538, United States) in their GPCR Arrestin Assay to determine their activity against a panel of receptors including CXCR2 and CXCR1. PathHunter CHO cell lines were expanded from freezer stocks according to standard procedures. Cells were seeded in a total volume of 20 μL into white walled, 384-well microplates and incubated at 37° C. for the appropriate time prior to testing. The cells were pre-incubated with antagonist followed by agonist challenge at the EC80 concentration. Intermediate dilution of sample stocks was performed to generate 5× sample in assay buffer. 5 μL of 5× sample was added to cells and incubated at 37° C. or room temperature for 30 minutes. […] Assay signal was generated through a single addition of 12.5 or 15 μL (50% v/v) of PathHunter Detection reagent cocktail, followed by one hour incubation at room temperature. Microplates were read following signal generation with a PerkinElmer Envision™ instrument for chemiluminescent signal detection. Compound activity was analyzed using CBIS data analysis suite (ChemInnovation, Calif.).

CXCR2 receptor [3] = target: T1, CXCR2 receptor; test: CXCR2 Tango assay; design: fused on or other part: TEV protease cleavage site and Gal4-VP16 transcription factor fused to the receptor (Invitrogen Tango construct); no part of the key; conditions: Tango reporter gene, 80 nM hCXCL1; read-out: pIC50 against the CXCR2 receptor (converted)
Source text: The assay measures ligand-induced activation of the receptor CXCR2 in a stable cell line containing the recombinant human CXCR2 linked to a TEV protease site and a Gal4-VP16 transcription factor (Invitrogen). Ligand binding to the receptor results in the recruitment of arrestin proteins (tagged with protease) to the receptor and triggers the release of a tethered transcription factor. The transcription factor enters the nucleus and activates the transcription of the reporter gene. The ability of a compound to inhibit CXCR2 activation is indirectly assessed by measuring the reporter gene activity.
A vial of cryopreserved cells was removed from liquid nitrogen and rapidly thawed in a water bath at 37° C. with gentle agitation. The cell contents were collected and resuspended in Assay Medium at a density of ˜200,000 cells/ml. All test compounds were dissolved in DMSO at a concentration of 10 mM and then were serially diluted to generate a 10-point dose response curve into 384-well assay plate (Greiner 781090) using an Echo (Labcyte) concentration-response program (50 nl/well). The cell-free, un-stimulated and positive controls were loaded with 50 nl/well pure DMSO to ensure that the DMSO concentration was constant across the plate for all assays. Using Multi-drop Combi (Thermo) with standard cassette, 50 μl of Assay Medium was added to cell-free control wells in compound-containing assay plate; 50 μl of the cell suspension without hCXCL1 (a CXCR2 ligand) was added to un-stimulated control wells (10,000 cells per well); and 50 μl of the cell suspension with 80 nM hCXCL1 was added to the rest of wells of the assay plate (10,000 cells per well). The cells were incubated overnight at 37° C./5% CO2·10 μl of 6× substrate mixture (LiveBLAzer™-FRET B/G substrate (CCF4-AM) Cat #K1096 from Invitrogen, Inc.) was added to each well using Multi-drop Combi (Thermo) with small-tube cassette and the plate was incubated at room temperature for 2 h in the dark. The plate was then read on EnVision using one excitation channel (409 nm) and two emission channels (460 nm and 530 nm).
The blue/green emission ratio (460 nm/530 nm) was calculated for each well by dividing the background-subtracted Blue emission values by the background-subtracted Green emission values. The dose response curve was based on sigmoidal dose-response model. All ratio data was normalized based upon the maximum emission ratio of positive control (hCXCL1) and minimum emission ratio of negative control (DMSO) on each plate.

CXCR1 receptor = target: T2, CXCR1 receptor (Homo sapiens, UniProt P25024); test: GPCR Arrestin Assay (DiscoveRX PathHunter), CXCR1; design: host or cells: PathHunter CHO cell lines; conditions: PathHunter CHO cells, agonist at EC80; read-out: pIC50 against the CXCR1 receptor (converted)
T2 sequence (P25024 1-350): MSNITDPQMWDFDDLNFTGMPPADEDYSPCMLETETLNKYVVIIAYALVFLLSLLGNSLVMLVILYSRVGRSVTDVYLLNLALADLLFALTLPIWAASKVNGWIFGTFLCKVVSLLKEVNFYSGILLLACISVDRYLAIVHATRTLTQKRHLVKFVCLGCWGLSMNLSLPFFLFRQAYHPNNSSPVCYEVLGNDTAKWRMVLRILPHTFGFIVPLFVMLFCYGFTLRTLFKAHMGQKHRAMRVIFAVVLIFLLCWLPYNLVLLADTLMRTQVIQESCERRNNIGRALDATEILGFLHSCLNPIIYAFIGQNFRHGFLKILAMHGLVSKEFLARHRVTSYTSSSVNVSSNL
Procedure: as §1

SMILES: CC1=CCC[C@H]1NC(=O)Nc1ccc(Cl)c(S(=O)(=O)[C@@]2(C)CCOC2)c1O [Compound of Formula (J), 1-(4-chloro-2-hydroxy-3-(((S)-3-methyltetrahydrofuran-3-yl)sulfonyl)phenyl)-3-((R)-2-methylcyclopent-2-en-1-yl)urea]
- IC50 (CXCR2 receptor [1]): 39.8 nM
- selectivity for CXCR2 over CXCR1 (CXCR2 receptor [2]; GPCR Arrestin Assay e)): 730 fold
- IC50 (CXCR2 receptor [2]; PathHunter CHO cells, agonist at EC80, read-out: pIC50 against the CXCR2 receptor (converted)): 5.01 nM
- IC50 (CXCR2 receptor [3]): 1 nM
- IC50 (CXCR1 receptor): 3980 nM
